Measured values taken from US20260071190A1, “SARS CORONAVIRUS 2 R[…] […] GENES, DERIVED FROM GH CLADE SARS CORONAVIRUS 2 OF KOREAN ISOLATE, AND THE PRODUCTION METHOD THEREFOR” (RpexBio, Inc., priority 2022, published 2026).

Test system: rSARS-COV-2/YS006_Nluc
Type: cell-based, SARS coronavirus 2
Conditions: compared to healthy human-derived IgG control, FIG. 4D

For “etesevimab: Eli Lilly's recombinant monoclonal antibody for the treatment of SARS coronavirus 2”, the “inhibition of viral entry into cells / reporter expression” value was “inhibit viral entry into cells and reduce reporter expression as its concentration increased”.
